Experimental data from patent publication US4053466A, “(E)-2-[p-(β-substituted-vinyl)phenyl]alkanoic acids” (Kohjin Co., Ltd., priority 1974, dated 1977).

What was measured:
[1] = Farmaco. Edizione Scientifica, 11, 167 (1956); cited from earlier work
[2] = tested on: rabbit platelet-rich plasma; assay: inhibition of collagen-induced platelet aggregation; type: cell-based; conditions: 10^-4 M, 0.02N NaOH, 3 minute incubation
Description: The activity was evaluated after a 3 minute incubation of a mixture of the platelet aggregation inhibitor and rabbit platelet-rich plasma. […] Accordingly,the relative potency of inhibition of the test compound to aspirin (RASP) at the same concentration was chosen as a direct measure of inhibition potency.

[3] = tested on: carrageenin-induced hind paw edema; assay: anti-inflammatory activity, carrageenin-induced hind paw edema; type: in vivo, rat (male Wistar); conditions: for number of positive rats: inhibition of 25% or more vs control at 3 hours; for ED50: Rattus norvegicus, po, carrageenin edema, positive = inhibition of 25% or more at 3 hours
Description: The anti-inflammatory activity of the compounds against carrageenin-inducededema was determined according to procedure described in C. A. Winter et al., Proc. Soc. Exp. Biol. Med., 111, 544 (1962). Male Wistar rats, each weighing 100 to 120 g were used. Hind paw edema was induced by sub-cutaneous injection of 0.1 ml of 1% carrageenin solution into the left foot pad of each rat. Hind paw volume was measured before and after challenge of carrageenin by immersion of the hind paw down to the lateral malleolus into a glass cylinder containing water. Each dose of the test compound was orally administered one hour before challenge of carrageenin.
ED50 -value was calculated from the number of positive animals showing an inhibitory activity of 25% or more than the matched control group at 3 hours after carrageenin challenge.

[4] = tested on: phenylquinone-induced writhing; assay: analgesic activity, Phenylquinone-Writhing Syndrome method; type: in vivo, mouse (ddN strain); conditions: for number of positive mice: fewer writhings than half of control; for ED50: Mus musculus, po, phenylquinone writhing, positive = fewer writhings than half of control
Description: Analgesic activity was determined according to the Phenylquinone-Writhing Syndrome method. ddN strain mice, each weighing about 18 to 22 g were used. Chemical pain was induced by an intraperitoneal injection of 0.1 ml/10 g body weight of 0.03% phenylquinone in 5% aqueous ethanol into the mice. The number of writhings was measured for 15 minutes from 5 minutes after challenge of phenylquinone. Each dose of the drug was given 30 minutes before challenge of phenylquinone.
Ed50 -value was calculated from the number of positive animals showing fewer writhings than half of the matched control group.

For `O=C(O)Cc1ccc(C=Cc2ccccc2)cc1` [4-stilbene-acetic acid], the anti-cholesterinemic activity [1] is listed as “anti-cholesterinemic activity”.

In the case of `O=C(O)Cc1ccc(/C=C/c2cccs2)cc1` [Example 4, (E)-p-(β-2-Thienylvinyl)phenylacetic Acid], the “RASP (relative potency of inhibition of the test compound to aspirin)” value [2] is reported as 1.0.

In the case of `CC(C)Cc1ccc(C(C)C(=O)O)cc1` (stereo not shown) [Ibuprofen, 2-(p-isobutylphenyl)propionic acid, reference compound], the “RASP (relative potency of inhibition of the test compound to aspirin)” value [2] is reported as 0.6, the “Hind Paw Swelling, Mean ± S.E.” value ([3]; 10 mg/kg p.o., 2 hours) is reported as 57.4 ± 3.9% and the “Percent Inhibition of hind paw swelling” value ([3]; 10 mg/kg p.o., 2 hours) is reported as 13.6%. The “Hind Paw Swelling, Mean ± S.E.” value ([3]; 10 mg/kg p.o., 3 hours) was 60.8 ± 4.7%, the “Percent Inhibition of hind paw swelling” value ([3]; 10 mg/kg p.o., 3 hours) was 15.5% and the “number of positive rats” value ([3]; 10 mg/kg p.o.) was 1. The “Hind Paw Swelling, Mean ± S.E.” value ([3]; 20 mg/kg p.o., 2 hours) was 52.6 ± 3.4%, the “Percent Inhibition of hind paw swelling” value ([3]; 20 mg/kg p.o., 2 hours) was 20.9% and the “Hind Paw Swelling, Mean ± S.E.” value ([3]; 20 mg/kg p.o., 3 hours) was 56.2 ± 2.7%. The “Percent Inhibition of hind paw swelling” value ([3]; 20 mg/kg p.o., 3 hours) was 21.9%, the “number of positive rats” value ([3]; 20 mg/kg p.o.) was 4 and the “Hind Paw Swelling, Mean ± S.E.” value ([3]; 40 mg/kg p.o., 2 hours) was 47.5 ± 4.0%. The “Percent Inhibition of hind paw swelling” value ([3]; 40 mg/kg p.o., 2 hours) was 28.6%, the “Hind Paw Swelling, Mean ± S.E.” value ([3]; 40 mg/kg p.o., 3 hours) was 51.2 ± 4.0% and the “Percent Inhibition of hind paw swelling” value ([3]; 40 mg/kg p.o., 3 hours) was 28.9%. The “number of positive rats” value ([3]; 40 mg/kg p.o.) was 7, the “Hind Paw Swelling, Mean ± S.E.” value ([3]; 80 mg/kg p.o., 2 hours) was 41.8 ± 2.3% and the “Percent Inhibition of hind paw swelling” value ([3]; 80 mg/kg p.o., 2 hours) was 37.2%. For the same compound, the “Hind Paw Swelling, Mean ± S.E.” value ([3]; 80 mg/kg p.o., 3 hours) was 43.9 ± 2.4%, the “Percent Inhibition of hind paw swelling” value ([3]; 80 mg/kg p.o., 3 hours) was 38.9% and the “number of positive rats” value ([3]; 80 mg/kg p.o.) was 9. The ED50 [3] was 24.3 mg/kg, the “Inhibition in (%) of writhing” value ([4]; 25 mg/kg p.o.) was 25.5% and the “Number of Writhings/15 min., Mean ± S.E.” value ([4]; 25 mg/kg p.o.) was 27.4 ± 3.3. The “number of positive mice” value ([4]; 25 mg/kg p.o.) was 2, the “Inhibition in (%) of writhing” value ([4]; 50 mg/kg p.o.) was 45.7% and the “Number of Writhings/15 min., Mean ± S.E.” value ([4]; 50 mg/kg p.o.) was 20.0 ± 1.5. For the same compound, the “number of positive mice” value ([4]; 50 mg/kg p.o.) was 4, the “Inhibition in (%) of writhing” value ([4]; 100 mg/kg p.o.) was 64.4% and the “Number of Writhings/15 min., Mean ± S.E.” value ([4]; 100 mg/kg p.o.) was 13.1 ± 1.9. For the same compound, the “number of positive mice” value ([4]; 100 mg/kg p.o.) was 8, the “Inhibition in (%) of writhing” value ([4]; 200 mg/kg p.o.) was 76.4% and the “Number of Writhings/15 min., Mean ± S.E.” value ([4]; 200 mg/kg p.o.) was 8.7 ± 1.6. The “number of positive mice” value ([4]; 200 mg/kg p.o.) was 10, the “Inhibition in (%) of writhing” value ([4]; 400 mg/kg p.o.) was 94.8% and the “Number of Writhings/15 min., Mean ± S.E.” value ([4]; 400 mg/kg p.o.) was 1.9 ± 0.8. The “number of positive mice” value ([4]; 400 mg/kg p.o.) was 10 and the ED50 [4] was 50 mg/kg.

With `CC(C(=O)O)c1ccc(/C=C/c2cccs2)cc1` (stereo not drawn) [XG-28, (E)-2-[p-(β-2-Thienylvinyl)phenyl]propionic Acid] the “RASP (relative potency of inhibition of the test compound to aspirin)” value [2] was 1.6, the “Hind Paw Swelling, Mean ± S.E.” value ([3]; 1 mg/kg p.o., 2 hours) was 73.7 ± 3.7% and the “Percent Inhibition of hind paw swelling” value ([3]; 1 mg/kg p.o., 2 hours) was 2.4%. For the same compound, the “Hind Paw Swelling, Mean ± S.E.” value ([3]; 1 mg/kg p.o., 3 hours) was 73.9 ± 2.6%, the “Percent Inhibition of hind paw swelling” value ([3]; 1 mg/kg p.o., 3 hours) was -1.0% and the “number of positive rats” value ([3]; 1 mg/kg p.o.) was 0. The “Hind Paw Swelling, Mean ± S.E.” value ([3]; 2.5 mg/kg p.o., 2 hours) was 67.0 ± 2.6%, the “Percent Inhibition of hind paw swelling” value ([3]; 2.5 mg/kg p.o., 2 hours) was 11.3% and the “Hind Paw Swelling, Mean ± S.E.” value ([3]; 2.5 mg/kg p.o., 3 hours) was 70.12 ± 2.1%. The “Percent Inhibition of hind paw swelling” value ([3]; 2.5 mg/kg p.o., 3 hours) was 4.0%, the “number of positive rats” value ([3]; 2.5 mg/kg p.o.) was 0 and the “Hind Paw Swelling, Mean ± S.E.” value ([3]; 5 mg/kg p.o., 2 hours) was 62.9 ± 3.2%. The “Percent Inhibition of hind paw swelling” value ([3]; 5 mg/kg p.o., 2 hours) was 16.8%, the “Hind Paw Swelling, Mean ± S.E.” value ([3]; 5 mg/kg p.o., 3 hours) was 68.2 ± 2.7% and the “Percent Inhibition of hind paw swelling” value ([3]; 5 mg/kg p.o., 3 hours) was 6.7%. For the same compound, the “number of positive rats” value ([3]; 5 mg/kg p.o.) was 1, the “Hind Paw Swelling, Mean ± S.E.” value ([3]; 10 mg/kg p.o., 2 hours) was 60.5 ± 2.3% and the “Percent Inhibition of hind paw swelling” value ([3]; 10 mg/kg p.o., 2 hours) was 19.8%. The “Hind Paw Swelling, Mean ± S.E.” value ([3]; 10 mg/kg p.o., 3 hours) was 65.7 ± 2.0%, the “Percent Inhibition of hind paw swelling” value ([3]; 10 mg/kg p.o., 3 hours) was 10.1% and the “number of positive rats” value ([3]; 10 mg/kg p.o.) was 0. The “Hind Paw Swelling, Mean ± S.E.” value ([3]; 20 mg/kg p.o., 2 hours) was 50.7 ± 3.7%, the “Percent Inhibition of hind paw swelling” value ([3]; 20 mg/kg p.o., 2 hours) was 33.6% and the “Hind Paw Swelling, Mean ± S.E.” value ([3]; 20 mg/kg p.o., 3 hours) was 56.0 ± 4.1%. For the same compound, the “Percent Inhibition of hind paw swelling” value ([3]; 20 mg/kg p.o., 3 hours) was 25.2%, the “number of positive rats” value ([3]; 20 mg/kg p.o.) was 6 and the “Hind Paw Swelling, Mean ± S.E.” value ([3]; 40 mg/kg p.o., 2 hours) was 46.8 ± 2.6%. The “Percent Inhibition of hind paw swelling” value ([3]; 40 mg/kg p.o., 2 hours) was 38.7%, the “Hind Paw Swelling, Mean ± S.E.” value ([3]; 40 mg/kg p.o., 3 hours) was 48.6 ± 3.1% and the “Percent Inhibition of hind paw swelling” value ([3]; 40 mg/kg p.o., 3 hours) was 35.1%. The “number of positive rats” value ([3]; 40 mg/kg p.o.) was 8, the “Hind Paw Swelling, Mean ± S.E.” value ([3]; 80 mg/kg p.o., 2 hours) was 49.8 ± 2.6% and the “Percent Inhibition of hind paw swelling” value ([3]; 80 mg/kg p.o., 2 hours) was 31.3%. For the same compound, the “Hind Paw Swelling, Mean ± S.E.” value ([3]; 80 mg/kg p.o., 3 hours) was 49.3± 2.8%, the “Percent Inhibition of hind paw swelling” value ([3]; 80 mg/kg p.o., 3 hours) was 30.9% and the “number of positive rats” value ([3]; 80 mg/kg p.o.) was 7. The ED50 [3] was 23.3 mg/kg, the “Inhibition in (%) of writhing” value ([4]; 0.5 mg/kg p.o.) was 13.5% and the “Number of Writhings/15 min., Mean ± S.E.” value ([4]; 0.5 mg/kg p.o.) was 16.8 ± 2.1. For the same compound, the “number of positive mice” value ([4]; 0.5 mg/kg p.o.) was 1, the “Inhibition in (%) of writhing” value ([4]; 5 mg/kg p.o.) was 25.8% and the “Number of Writhings/15 min., Mean ± S.E.” value ([4]; 5 mg/kg p.o.) was 14.4 ± 6.0. For the same compound, the “number of positive mice” value ([4]; 5 mg/kg p.o.) was 2, the “Inhibition in (%) of writhing” value ([4]; 10 mg/kg p.o.) was 29.4% and the “Number of Writhings/15 min., Mean ± S.E.” value ([4]; 10 mg/kg p.o.) was 13.7 ± 2.4. The “number of positive mice” value ([4]; 10 mg/kg p.o.) was 2, the “Inhibition in (%) of writhing” value ([4]; 25 mg/kg p.o.) was 71.1% and the “Number of Writhings/15 min., Mean ± S.E.” value ([4]; 25 mg/kg p.o.) was 5.6 ± 1.8. The “number of positive mice” value ([4]; 25 mg/kg p.o.) was 7, the “Inhibition in (%) of writhing” value ([4]; 50 mg/kg p.o.) was 52.1% and the “Number of Writhings/15 min., Mean ± S.E.” value ([4]; 50 mg/kg p.o.) was 9.3 ± 1.6. The “number of positive mice” value ([4]; 50 mg/kg p.o.) was 4, the “Inhibition in (%) of writhing” value ([4]; 100 mg/kg p.o.) was 63.9% and the “Number of Writhings/15 min., Mean ± S.E.” value ([4]; 100 mg/kg p.o.) was 7.0 ± 2.0. The “number of positive mice” value ([4]; 100 mg/kg p.o.) was 9, the “Inhibition in (%) of writhing” value ([4]; 200 mg/kg p.o.) was 60.3% and the “Number of Writhings/15 min., Mean ± S.E.” value ([4]; 200 mg/kg p.o.) was 7.7 ± 1.2. For the same compound, the “number of positive mice” value ([4]; 200 mg/kg p.o.) was 5 and the ED50 [4] was 14.1 mg/kg.

In the case of `CC(C)Cc1ccc(CC(=O)O)cc1` [p-Isobutylphenylacetic acid, reference compound], the “RASP (relative potency of inhibition of the test compound to aspirin)” value [2] is reported as 0.5.
